Measurements reported in ChEMBL document CHEMBL1770085, “Homodimeric bis-quaternary heterocyclic ammonium salts as potent acetyl- and butyrylcholinesterase inhibitors: a systematic investigation of the influence of linker and cationic heads over affinity and selectivity” (J Med Chem, 2011).

What was measured:
[1] = molecular target: T1, Acetylcholinesterase (Bos taurus) (UniProt P23795); assay: Inhibition of bovine AChE at 10 uM after 20 mins using acetylthiocholine iodide as a substrate by Ellman's assay
T1 sequence (whole entry): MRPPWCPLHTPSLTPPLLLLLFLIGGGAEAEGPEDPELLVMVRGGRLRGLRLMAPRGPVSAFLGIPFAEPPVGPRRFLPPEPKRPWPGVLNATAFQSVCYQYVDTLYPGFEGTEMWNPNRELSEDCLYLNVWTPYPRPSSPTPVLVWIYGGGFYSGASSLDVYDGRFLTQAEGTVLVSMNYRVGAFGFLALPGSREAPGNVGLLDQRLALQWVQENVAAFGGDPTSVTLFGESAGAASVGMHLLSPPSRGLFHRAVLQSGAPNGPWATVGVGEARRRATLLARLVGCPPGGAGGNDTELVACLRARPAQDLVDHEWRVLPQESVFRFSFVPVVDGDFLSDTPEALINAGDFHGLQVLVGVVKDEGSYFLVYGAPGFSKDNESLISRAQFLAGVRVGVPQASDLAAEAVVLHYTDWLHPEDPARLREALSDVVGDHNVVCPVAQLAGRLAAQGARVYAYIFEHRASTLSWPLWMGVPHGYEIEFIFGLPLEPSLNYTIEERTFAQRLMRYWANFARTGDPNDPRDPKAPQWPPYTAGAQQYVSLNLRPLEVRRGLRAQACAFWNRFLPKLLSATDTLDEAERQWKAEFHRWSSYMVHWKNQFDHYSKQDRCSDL

Butyrylcholinesterase = Butyrylcholinesterase (Equus caballus, UniProt Q9N1N9)
Description: Inhibition of equine BChE after 20 mins using butyrylthiocholine iodide as a substrate by Ellman's assay

Acetylcholinesterase [2] = molecular target: T2, Acetylcholinesterase (Bos taurus, UniProt P23795)
T2 sequence (P23795 whole entry): T1 sequence (whole entry)
Description: Inhibition of bovine AChE after 20 mins using acetylthiocholine iodide as a substrate by Ellman's assay

[3] = Selectivity index, ratio of IC50 for equine BChE to IC50 for bovine AChE
Acetylcholinesterase [4] = molecular target: Acetylcholinesterase (Homo sapiens, UniProt P22303)
Description: Inhibition of human recombinant AChE after 20 mins using acetylthiocholine iodide as a substrate by Ellman's assay

Cholinesterase = Cholinesterase (Homo sapiens, UniProt P06276)
Sequence of Cholinesterase (P06276 whole entry): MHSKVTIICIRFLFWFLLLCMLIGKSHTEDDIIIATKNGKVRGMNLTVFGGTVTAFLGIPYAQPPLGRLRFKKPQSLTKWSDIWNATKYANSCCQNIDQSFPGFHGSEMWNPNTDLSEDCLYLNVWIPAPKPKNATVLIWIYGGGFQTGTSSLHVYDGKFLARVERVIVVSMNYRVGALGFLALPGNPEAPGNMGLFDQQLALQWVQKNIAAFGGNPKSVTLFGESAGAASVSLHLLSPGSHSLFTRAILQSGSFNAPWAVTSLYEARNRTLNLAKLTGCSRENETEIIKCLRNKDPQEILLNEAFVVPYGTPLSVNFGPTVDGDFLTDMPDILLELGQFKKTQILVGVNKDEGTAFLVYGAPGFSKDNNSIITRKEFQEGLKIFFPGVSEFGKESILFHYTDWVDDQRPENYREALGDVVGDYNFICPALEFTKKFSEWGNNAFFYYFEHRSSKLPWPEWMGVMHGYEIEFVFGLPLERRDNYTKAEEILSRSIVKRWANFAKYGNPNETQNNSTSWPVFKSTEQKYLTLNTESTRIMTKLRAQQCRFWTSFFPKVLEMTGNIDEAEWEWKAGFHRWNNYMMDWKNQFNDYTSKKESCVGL
Description: Inhibition of human BChE after 20 mins using butyrylthiocholine iodide as a substrate by Ellman's assay

Sequence of Butyrylcholinesterase (Q9N1N9 whole entry): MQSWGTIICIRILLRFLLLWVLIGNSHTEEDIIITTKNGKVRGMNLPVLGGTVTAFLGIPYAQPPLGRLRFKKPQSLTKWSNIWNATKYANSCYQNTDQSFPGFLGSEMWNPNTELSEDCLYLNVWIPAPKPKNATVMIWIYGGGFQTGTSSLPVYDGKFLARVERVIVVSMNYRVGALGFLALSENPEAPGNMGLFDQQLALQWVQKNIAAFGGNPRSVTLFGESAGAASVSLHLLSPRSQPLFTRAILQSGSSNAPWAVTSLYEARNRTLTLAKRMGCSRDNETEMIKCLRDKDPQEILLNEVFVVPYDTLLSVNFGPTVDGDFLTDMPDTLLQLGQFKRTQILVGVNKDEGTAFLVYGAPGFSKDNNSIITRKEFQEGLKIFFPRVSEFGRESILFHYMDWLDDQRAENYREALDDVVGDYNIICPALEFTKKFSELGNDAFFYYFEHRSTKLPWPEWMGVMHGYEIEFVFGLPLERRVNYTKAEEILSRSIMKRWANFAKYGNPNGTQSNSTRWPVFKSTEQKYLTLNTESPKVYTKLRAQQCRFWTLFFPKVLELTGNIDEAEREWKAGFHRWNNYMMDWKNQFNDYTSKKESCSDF
Sequence of Acetylcholinesterase (Homo sapiens, UniProt P22303) (P22303 whole entry): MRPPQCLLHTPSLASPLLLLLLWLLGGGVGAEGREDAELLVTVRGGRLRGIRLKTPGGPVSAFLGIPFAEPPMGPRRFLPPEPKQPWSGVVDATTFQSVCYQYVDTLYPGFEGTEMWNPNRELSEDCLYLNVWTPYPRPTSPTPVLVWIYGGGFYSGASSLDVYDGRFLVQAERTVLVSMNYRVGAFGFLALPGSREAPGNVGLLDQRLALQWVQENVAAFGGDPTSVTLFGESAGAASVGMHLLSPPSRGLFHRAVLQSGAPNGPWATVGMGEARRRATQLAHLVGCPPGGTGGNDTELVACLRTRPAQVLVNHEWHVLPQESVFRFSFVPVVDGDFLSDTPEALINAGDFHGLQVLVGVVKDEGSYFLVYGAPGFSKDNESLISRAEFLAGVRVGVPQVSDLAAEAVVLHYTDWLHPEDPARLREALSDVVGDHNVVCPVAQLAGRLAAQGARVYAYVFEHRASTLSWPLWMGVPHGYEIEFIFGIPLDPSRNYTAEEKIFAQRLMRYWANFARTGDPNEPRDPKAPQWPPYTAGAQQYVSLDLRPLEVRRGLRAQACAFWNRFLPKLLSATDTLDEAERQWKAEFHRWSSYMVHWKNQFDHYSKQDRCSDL

| SMILES | inhibition [1] [%] | IC50 (Butyrylcholinesterase) [µM] | IC50 (Acetylcholinesterase [2]) [µM] | Ratio IC50 [3] | IC50 (Acetylcholinesterase [4]) [µM] | IC50 (Cholinesterase) [µM] |
| --- | --- | --- | --- | --- | --- | --- |
| Cc1ccc(C[n+]2ccc(N)c3ccccc32)cc1 | 34 |  |  |  |  |  |
| OC1C[N+]2(Cc3ccc(/C=C/c4ccc(C[N+]56CCC(CC5)C(O)C6)cc4)cc3)CCC1CC2 (stereo not drawn) |  | 5.34 | 0.141 | 38 |  |  |
| Cc1c[n+](Cc2cccc(-c3cccc(C[n+]4cc(C)c(N)c5ccccc54)c3)c2)c2ccccc2c1N |  | 0.059 | 0.497 | 0.12 |  |  |
| c1cc(C[n+]2ccc(N3CCCCC3)cc2)cc(-c2cccc(C[n+]3ccc(N4CCCCC4)cc3)c2)c1 |  | 0.179 | 0.026 | 6.9 | 0.06 | 0.33 |
| CN(C)c1cc[n+](Cc2ccc(C[n+]3ccc(N(C)C)cc3)cc2)cc1 |  |  | 1.31 | 7.6 |  |  |
| c1ccc2c(c1)CCN(c1cc[n+](Cc3ccc(C[n+]4ccc(N5CCc6ccccc6C5)cc4)cc3)cc1)C2 |  | 0.327 | 0.126 | 2.6 |  |  |
| c1cc(C[n+]2ccc(N3CCCCCC3)cc2)ccc1CCc1ccc(C[n+]2ccc(N3CCCCCC3)cc2)cc1 |  | 0.274 | 0.086 | 3.2 |  |  |
| c1cc(C[n+]2ccc(N3CCCC3)cc2)ccc1C[n+]1ccc(N2CCCC2)cc1 |  | 1.3 | 0.336 | 3.9 |  |  |
| c1cc(C[n+]2ccc(C3CCCCC3)cc2)cc(-c2cccc(C[n+]3ccc(C4CCCCC4)cc3)c2)c1 |  | 1.09 | 0.134 | 8.2 |  |  |
| CN(C)c1cc[n+](Cc2cccc(C[n+]3ccc(N(C)C)cc3)c2)cc1 |  | 7.56 | 0.39 | 19 |  |  |
| c1cc2cc(c1)C[n+]1ccc(cc1)NCc1ccc(cc1)CNc1cc[n+](cc1)C2 |  | 0.85 | 3.9 | 0.22 |  |  |
| CN(C)c1cc[n+](Cc2cc(C[n+]3ccc(N(C)C)cc3)cc(C[n+]3ccc(N(C)C)cc3)c2)cc1 |  |  | 2.75 | 3.6 |  |  |
| c1cc(C[n+]2ccc(N3CCCC3)cc2)ccc1CCCc1ccc(C[n+]2ccc(N3CCCC3)cc2)cc1 |  | 0.292 | 0.081 | 3.6 |  |  |
| c1cc(-c2ccc(C[n+]3ccc(N4CCCCC4)cc3)cc2)ccc1C[n+]1ccc(N2CCCCC2)cc1 |  | 0.43 | 0.16 | 2.7 |  |  |
| C(=C\c1ccc(C[n+]2ccc(N3CCCCC3)cc2)cc1)/c1ccc(C[n+]2ccc(N3CCCCC3)cc2)cc1 |  | 0.247 | 0.582 | 0.42 |  |  |
| c1cc(C[n+]2ccc(N3CCCCC3)cc2)ccc1C[n+]1ccc(N2CCCCC2)cc1 |  | 0.682 | 0.072 | 9.5 | 0.075 | 0.61 |
| OC1C[N+]2(Cc3cccc(-c4cccc(C[N+]56CCC(CC5)C(O)C6)c4)c3)CCC1CC2 (stereo not drawn) | 55.8 | 1.15 |  | 0.11 |  |  |
| c1cc(C[n+]2ccc(N3CCCC3)cc2)cc(-c2cccc(C[n+]3ccc(N4CCCC4)cc3)c2)c1 |  | 0.518 | 0.039 | 13 |  |  |
| COc1cc2c(cc1OC)CN(c1cc[n+](Cc3ccc(C[n+]4ccc(N5CCc6cc(OC)c(OC)cc6C5)cc4)cc3)cc1)CC2 |  | 1.37 | 1.95 | 0.7 |  |  |
| c1cc(C[n+]2ccc(NC3CCCCC3)cc2)ccc1CCCCc1ccc(C[n+]2ccc(NC3CCCCC3)cc2)cc1 |  | 0.206 | 0.1 | 2.1 |  |  |
| CN(c1ccc(Cl)cc1)c1cc[n+](Cc2cccc(-c3cccc(C[n+]4ccc(N(C)c5ccc(Cl)cc5)cc4)c3)c2)cc1 |  | 0.496 | 1.78 | 0.28 |  |  |
| COc1cc2c(cc1OC)CN(c1cc[n+](Cc3cccc(-c4cccc(C[n+]5ccc(N6CCc7cc(OC)c(OC)cc7C6)cc5)c4)c3)cc1)CC2 |  | 1.17 | 0.519 | 2.3 |  |  |
| c1cc(C[n+]2ccc(N3CCCC3)cc2)ccc1CCc1ccc(C[n+]2ccc(N3CCCC3)cc2)cc1 |  | 0.735 | 0.385 | 1.9 |  |  |
| Nc1cc[n+](Cc2ccc(CCc3ccc(C[n+]4ccc(N)c5ccccc54)cc3)cc2)c2ccccc12 |  | 0.62 | 0.672 | 0.92 |  |  |
| c1cc(C[n+]2ccc(N3CCCC3)cc2)ccc1CCCCc1ccc(C[n+]2ccc(N3CCCC3)cc2)cc1 |  | 0.671 | 0.104 | 6.5 |  |  |
| COc1cc2c(cc1OC)CN(c1cc[n+](Cc3ccc(-c4ccc(C[n+]5ccc(N6CCc7cc(OC)c(OC)cc7C6)cc5)cc4)cc3)cc1)CC2 |  | 1.53 | 0.094 | 16 |  |  |
